Experimental findings from patent US11767298B2, “Substituted benzimidazoles as inhibitors of transforming growth factor-β kinase” (Duke University, priority 2016, dated 2023) are described below.

Each structure is given as a SMILES string.

The subject of the experiment is PfPK9. The experiment is described as follows: UBC13 phosphorylation by PfPK9 (ADP luminescence assay). It is filed as biochemical, P. falciparum. Particulars: compared to DMSO. Here is the method:
Recombinant protein expression and enzyme activity assay. Recombinant GST-tagged PfPK9 was expressed in E. coli BL21(DE3) cells, purified to homogeneity, and the GST tag was cleaved with PreScission Protease (GE Healthcare). To test for inhibition of PfPK9, the ADP detection assay ADP-Glo (Promega) was used to determine ATPase activity of PfPK9 in the presence of the PfUBC13 protein substrate when treated with compounds 1 and 5. Approximately 500 nM PfPK9 was incubated with either compound (10 μM or 500 μM) for 5 min at RT in buffer containing 40 mM Tris, pH 7.5, 20 mM MgCl2, 2 mM MnCl2 and 1 mM DTT prior to assay initiation with 100 μM ATP. The assay was performed in white low-volume 384-well plates (Corning #3824) in triplicate. The assay plate was sealed and subsequently incubated for 8 hrs at 37° C. before ADP detection per manufacturer instructions. The final assay volume was 5 μL with a final concentration of 1% DMSO. A negative control was performed in 1% DMSO and heat inactivated PfPK9 (80° C. for 5 min) was used as a positive control. The luminescence intensity in each well was measured on an EnVision system. Data were normalized to the average luminescence signal of the negative control to provide relative ADP concentrations and graphs were constructed in GraphPad Prism. Data analyses were conducted from three independent experiments. […]

As for `CCCn1c(NC(=O)c2cccc(C(N)=O)c2)nc2ccccc21` [HS-206 (1), (E)-N-(1-Propyl-1,3-dihydro-2H-benzo[d]imidazol-2-ylidene)isophthalamide], the “UBC13 phosphorylation by PfPK9” value is listed as “significantly decreased”.
